Laboratory results: article PMC8909834, “An Orally Bioavailable and Highly Efficacious Inhibitor of CDK9/FLT3 for the Treatment of Acute Myeloid Leukemia” (Cancers, 2022)
Like-named read-outs stand apart in the source and are kept apart here.

Experiments:
MOLM-13 cells = assay: Cell cycle analysis (PI, flow cytometry); assay type: cell-based; conditions: MOLM-13, 1 µM, 24 h
Protocol: (§1) Detection of apoptosis and cell cycle analysis. Detection of apoptosis and cell cycle analysis were performed as described previously. Cells (1 × 10^5 cells/mL) were seeded into a six-well plate (Corning) and incubated overnight at 37 °C, 5% CO2 prior to incubation with different concentrations of CDDD11-8 or control (0.1% final DMSO concentration) for 6, 24, or 72 h. For washout experiments, cells were incubated with compounds for 6 h, then washed three times with 1 × PBS interspersed with centrifugation at 300× g for 5 min to remove compound. After incubation at 37 °C under 5% CO2, cells were centrifuged at 300× g for 5 min to form a pellet, washed with PBS, and incubated with Annexin V/PI (Becton Dickenson, Franklin Lakes, NJ, USA) for 15 min in the dark. For cell cycle analysis, cells were fixed with 70% ethanol (v/v, 4 °C) and incubated in the dark with cell cycle staining solution (50 µg/mL PI, 0.1 mg/mL RNase A, 0.05% Triton X-100) for 1.5 h. Samples were analyzed using a CytoFlex flow cytometer (Beckman Coulter, Brea, CA, USA). Data were analyzed with CytExpert software version 2.1 (Beckman Coulter, Brea, CA, USA).

MV4-11 cells = assay: Cell cycle analysis (PI, flow cytometry); assay type: cell-based; conditions: 24 h
Protocol: as §1

Pharmacokinetics in mice = assay type: in vivo, BALB/c hairy mice; conditions: for concentration at 0.1 h: 0.10 h; for half-life: read-out: t½ (converted); for bioavailability: po, read-out: F (oral bioavailability)
Protocol: Pharmacokinetics. The pharmacokinetics of CDDD11-8 was determined in mice after single oral (PO) and intravenous (IV) doses. CDDD11-8 was administered at a dose of 10 or 100 mg/kg PO or 2 mg/kg IV to BALB/c hairy mice (n = 10 per route of administration; both male and female). The IV dose consisted of CDDD11-8 dissolved in 10/90 N-methyl-2-pyrrolidone (NMP)/acetate buffer (pH 4.5), while the PO doses of CDDD11-8 were dissolved in acetate buffer at pH 4.74. At nominal times, up to three blood samples were collected from individual mice at non-consecutive times from the right cheek, left cheek, and heart of an individual mouse. The concentrations in these samples were measured by validated LC-MS/MS methods (limit of quantification = 5 ng/mL). Pharmacokinetic parameters were estimated after fitting compartmental models to the concentration–time data (Phoenix, Certara, NJ, USA). Specifically, a one-compartmental kinetic model with first-order input was used after an oral dose, and a two-compartmental model was fitted to the IV data. Acceptability of models was evaluated from values for Akaike Information Criterion (AIC), Schwarz’s Bayesian Criterion (SIB), and % Coefficient of Variance (CV) for parameters, where lower values were indicative of a better fit. Other considerations were variances in the concentrations of quality control samples and visual inspection of model fit. Oral bioavailability (F) was calculated from values of AUC after PO and IV administration after correcting for the differences in doses.

[1] = both sexes, BALB/c hairy, mouse, plasma, IV 2 mg/kg, read-out: Plasma Conc.
[2] = both sexes, BALB/c hairy, mouse, plasma, IV 2 mg/kg, ± standard error of the estimate
[3] = both sexes, BALB/c hairy, mouse, plasma, PO 10 mg/kg, read-out: Plasma Conc.
[4] = both sexes, BALB/c hairy, mouse, plasma, PO 100 mg/kg, read-out: Plasma Conc.
[5] = both sexes, BALB/c hairy, mouse, plasma, oral 10 mg/kg, ± standard error of the estimate
[6] = both sexes, BALB/c hairy, mouse, plasma, oral 100 mg/kg, ± standard error of the estimate

## Cc1cnc(N[C@H]2CC[C@H](N)CC2)nc1-c1cnc2ccc(-c3ccccc3)cn12 [CDDD11-8]
MOLM-13 cells
  increase of sub-G1 cell population: greater than 40 fold
MV4-11 cells; MV4-11, 0.3 µM
  increase in the G1 population (increment): 16%
MV4-11 cells; MV4-11, 1 µM
  increase of sub-G1 cell population: greater than 40 fold
Pharmacokinetics in mice
  oral bioavailability predicted from hepatic extraction: about 43%
  plasma exposure after 100 mg/kg PO relative to 10 mg/kg: 19 times
Pharmacokinetics in mice; PO 10 mg/kg
  plasma exposure: 3.4 µM·h
Pharmacokinetics in mice; PO 100 mg/kg
  plasma exposure: 64 µM·h
Pharmacokinetics in mice; blood clearance vs hepatic blood flow 5.4 L/h.kg
  extraction by the liver: ~57%
Pharmacokinetics in mice; both sexes, BALB/c hairy, mouse, IV 2 mg/kg, plasma, ± standard error of the estimate, read-out: CL (converted)
  clearance: 36.8 mL/min/kg
Pharmacokinetics in mice; both sexes, BALB/c hairy, mouse, plasma, IV 2 mg/kg, 0.03 h, read-out: Plasma Conc.
  concentration at 0.03 h: 2290 ng/mL
Pharmacokinetics in mice; both sexes, BALB/c hairy, mouse, plasma, IV 2 mg/kg, 0.07 h, read-out: Plasma Conc.
  concentration at 0.07 h: 2150 ng/mL
Pharmacokinetics in mice; [1]
  concentration at 0.1 h: 1310 ng/mL
  concentration at 5.4 h: 3 ng/mL
Pharmacokinetics in mice; both sexes, BALB/c hairy, mouse, plasma, IV 2 mg/kg, 0.17 h, read-out: Plasma Conc.
  concentration at 0.17 h: 1070 ng/mL
Pharmacokinetics in mice; both sexes, BALB/c hairy, mouse, plasma, IV 2 mg/kg, 0.20 h, read-out: Plasma Conc.
  concentration at 0.2 h: 1020 ng/mL
Pharmacokinetics in mice; both sexes, BALB/c hairy, mouse, plasma, IV 2 mg/kg, 0.30 h, read-out: Plasma Conc.
  concentration at 0.3 h: 781 ng/mL
Pharmacokinetics in mice; both sexes, BALB/c hairy, mouse, plasma, IV 2 mg/kg, 0.53 h, read-out: Plasma Conc.
  concentration at 0.53 h: 367 ng/mL
Pharmacokinetics in mice; both sexes, BALB/c hairy, mouse, plasma, IV 2 mg/kg, 0.68 h, read-out: Plasma Conc.
  concentration at 0.68 h: 271 ng/mL
Pharmacokinetics in mice; both sexes, BALB/c hairy, mouse, plasma, IV 2 mg/kg, 1.4 h, read-out: Plasma Conc.
  concentration at 1.4 h: 132 ng/mL
Pharmacokinetics in mice; both sexes, BALB/c hairy, mouse, plasma, IV 2 mg/kg, 2.1 h, read-out: Plasma Conc.
  concentration at 2.1 h: 50 ng/mL
Pharmacokinetics in mice; both sexes, BALB/c hairy, mouse, plasma, IV 2 mg/kg, 3.4 h, read-out: Plasma Conc.
  concentration at 3.4 h: 20 ng/mL
Pharmacokinetics in mice; both sexes, BALB/c hairy, mouse, plasma, IV 2 mg/kg, 4.1 h, read-out: Plasma Conc.
  concentration at 4.1 h: 11 ng/mL
Pharmacokinetics in mice; both sexes, BALB/c hairy, mouse, plasma, IV 2 mg/kg, 6 h, read-out: Plasma Conc.
  concentration at 6 h: 3.2 ng/mL
Pharmacokinetics in mice; both sexes, BALB/c hairy, mouse, plasma, IV 2 mg/kg, 7 h, read-out: Plasma Conc.
  concentration at 7 h: 2.4 ng/mL
Pharmacokinetics in mice; both sexes, BALB/c hairy, mouse, plasma, IV 2 mg/kg, 7.7 h, read-out: Plasma Conc.
  concentration at 7.7 h: 2.8 ng/mL
Pharmacokinetics in mice; both sexes, BALB/c hairy, mouse, plasma, IV 2 mg/kg, 8 h, read-out: Plasma Conc.
  concentration at 8 h: 2.8 ng/mL
Pharmacokinetics in mice; both sexes, BALB/c hairy, mouse, plasma, IV 2 mg/kg, 8.8 h, read-out: Plasma Conc.
  concentration at 8.8 h: 2 ng/mL
Pharmacokinetics in mice; both sexes, BALB/c hairy, mouse, plasma, IV 2 mg/kg, 9.5 h, read-out: Plasma Conc.
  concentration at 9.5 h: 1.7 ng/mL
Pharmacokinetics in mice; [2]
  AUC: 906 ± 90 ng·h/mL
  half-life: 108 ± 18 min
Pharmacokinetics in mice; both sexes, BALB/c hairy, mouse, plasma, IV 2 mg/kg, ± standard error of the estimate, read-out: Vss
  Vd: 1.71 ± 0.246 L/kg
Pharmacokinetics in mice; both sexes, BALB/c hairy, mouse, plasma, PO 10 mg/kg, 0.13 h, read-out: Plasma Conc.
  concentration at 0.13 h: 140 ng/mL
Pharmacokinetics in mice; both sexes, BALB/c hairy, mouse, plasma, PO 10 mg/kg, 0.28 h, read-out: Plasma Conc.
  concentration at 0.28 h: 300 ng/mL
Pharmacokinetics in mice; both sexes, BALB/c hairy, mouse, plasma, PO 10 mg/kg, 0.40 h, read-out: Plasma Conc.
  concentration at 0.4 h: 139 ng/mL
Pharmacokinetics in mice; both sexes, BALB/c hairy, mouse, plasma, PO 10 mg/kg, 0.65 h, read-out: Plasma Conc.
  concentration at 0.65 h: 389 ng/mL
Pharmacokinetics in mice; [3]
  concentration at 1.2 h: 740 ng/mL
  concentration at 1.9 h: 356 ng/mL
  concentration at 2.6 h: 450 ng/mL
  concentration at 5.4 h: 17 ng/mL
  concentration at 7.8 h: 1.6 ng/mL
  concentration at 24.6 h: 0 ng/mL
Pharmacokinetics in mice; both sexes, BALB/c hairy, mouse, plasma, PO 10 mg/kg, 3.3 h, read-out: Plasma Conc.
  concentration at 3.3 h: 95 ng/mL
Pharmacokinetics in mice; both sexes, BALB/c hairy, mouse, plasma, PO 10 mg/kg, 4.0 h, read-out: Plasma Conc.
  concentration at 4 h: 169 ng/mL
Pharmacokinetics in mice; both sexes, BALB/c hairy, mouse, plasma, PO 10 mg/kg, 4.7 h, read-out: Plasma Conc.
  concentration at 4.7 h: 34 ng/mL
Pharmacokinetics in mice; both sexes, BALB/c hairy, mouse, plasma, PO 10 mg/kg, 6.2 h, read-out: Plasma Conc.
  concentration at 6.2 h: 20 ng/mL
Pharmacokinetics in mice; both sexes, BALB/c hairy, mouse, plasma, PO 10 mg/kg, 6.8 h, read-out: Plasma Conc.
  concentration at 6.8 h: 3.4 ng/mL
Pharmacokinetics in mice; both sexes, BALB/c hairy, mouse, plasma, PO 10 mg/kg, 8.5 h, read-out: Plasma Conc.
  concentration at 8.5 h: 1.8 ng/mL
Pharmacokinetics in mice; both sexes, BALB/c hairy, mouse, plasma, PO 10 mg/kg, 9.7 h, read-out: Plasma Conc.
  concentration at 9.7 h: 1 ng/mL
Pharmacokinetics in mice; both sexes, BALB/c hairy, mouse, plasma, PO 10 mg/kg, 15.8 h, read-out: Plasma Conc.
  concentration at 15.8 h: 0 ng/mL
Pharmacokinetics in mice; both sexes, BALB/c hairy, mouse, plasma, PO 10 mg/kg, 21.0 h, read-out: Plasma Conc.
  concentration at 21 h: 0 ng/mL
Pharmacokinetics in mice; [4]
  concentration at 0.1 h: 810 ng/mL
  concentration at 1.2 h: 1810 ng/mL
  concentration at 1.9 h: 3010 ng/mL
  concentration at 2.6 h: 3680 ng/mL
  concentration at 7.8 h: 717 ng/mL
  concentration at 24.6 h: 74 ng/mL
Pharmacokinetics in mice; both sexes, BALB/c hairy, mouse, plasma, PO 100 mg/kg, 0.38 h, read-out: Plasma Conc.
  concentration at 0.38 h: 925 ng/mL
Pharmacokinetics in mice; both sexes, BALB/c hairy, mouse, plasma, PO 100 mg/kg, 0.73 h, read-out: Plasma Conc.
  concentration at 0.73 h: 2660 ng/mL
Pharmacokinetics in mice; both sexes, BALB/c hairy, mouse, plasma, PO 100 mg/kg, 2.9 h, read-out: Plasma Conc.
  concentration at 2.9 h: 2480 ng/mL
Pharmacokinetics in mice; both sexes, BALB/c hairy, mouse, plasma, PO 100 mg/kg, 4.9 h, read-out: Plasma Conc.
  concentration at 4.9 h: 4830 ng/mL
Pharmacokinetics in mice; both sexes, BALB/c hairy, mouse, plasma, PO 100 mg/kg, 6.1 h, read-out: Plasma Conc.
  concentration at 6.1 h: 2160 ng/mL
Pharmacokinetics in mice; both sexes, BALB/c hairy, mouse, plasma, PO 100 mg/kg, 7.0 h, read-out: Plasma Conc.
  concentration at 7 h: 881 ng/mL
Pharmacokinetics in mice; both sexes, BALB/c hairy, mouse, plasma, PO 100 mg/kg, 8.3 h, read-out: Plasma Conc.
  concentration at 8.3 h: 1200 ng/mL
Pharmacokinetics in mice; both sexes, BALB/c hairy, mouse, plasma, PO 100 mg/kg, 8.9 h, read-out: Plasma Conc.
  concentration at 8.9 h: 854 ng/mL
Pharmacokinetics in mice; both sexes, BALB/c hairy, mouse, plasma, PO 100 mg/kg, 9.6 h, read-out: Plasma Conc.
  concentration at 9.6 h: 248 ng/mL
Pharmacokinetics in mice; both sexes, BALB/c hairy, mouse, plasma, PO 100 mg/kg, 16.0 h, read-out: Plasma Conc.
  concentration at 16 h: 77 ng/mL
Pharmacokinetics in mice; both sexes, BALB/c hairy, mouse, plasma, PO 100 mg/kg, 22.1 h, read-out: Plasma Conc.
  concentration at 22.1 h: 153 ng/mL
Pharmacokinetics in mice; both sexes, BALB/c hairy, mouse, plasma, PO 100 mg/kg, 29.0 h, read-out: Plasma Conc.
  concentration at 29 h: 62 ng/mL
Pharmacokinetics in mice; both sexes, BALB/c hairy, mouse, plasma, PO 100 mg/kg, 41.2 h, read-out: Plasma Conc.
  concentration at 41.2 h: 0 ng/mL
Pharmacokinetics in mice; both sexes, BALB/c hairy, mouse, plasma, intravenous, 2 mg/kg, read-out: volume of distribution
  Vd: 1.71 L/kg
Pharmacokinetics in mice; [5]
  AUC: 1360 ± 249 ng·h/mL
  Cmax: 496 ± 108 ng/mL
  Tmax: 1 ± 0.1 h
  half-life: 40.8 ± 18 min
Pharmacokinetics in mice; [6]
  AUC: 25400 ng·h/mL
  Cmax: 3600 ± 822 ng/mL
  Tmax: 2 ± 0.6 h
  half-life: 408 ± 222 min
Pharmacokinetics in mice; both sexes, BALB/c hairy, mouse, plasma, 10 mg/kg, oral 10 mg/kg
  bioavailability: ~30%
Pharmacokinetics in mice; both sexes, BALB/c hairy, mouse, plasma, 100 mg/kg, oral 100 mg/kg
  bioavailability: 56%
Pharmacokinetics in mice; both sexes, BALB/c hairy, mouse, whole blood, intravenous, 2 mg/kg, plasma clearance divided by B/P, read-out: blood clearance (converted)
  clearance: 51.7 mL/min/kg
